These are literature values, as cited in US20160304881A1, “DDR1 ANTAGONIST OR AN INHIBITOR OF DDR1 GENE EXPRESSION FOR USE IN THE PREVENTION OR TREATMENT OF CRESCENTIC GLOMERULONEPHRITIS” (INSERM (INSTITUT NATIONAL DE LA SANTE ET DE LA RECHERCHE …, priority 2011, published 2016).

For the series, the target named is DDR1 (Homo sapiens, UniProt Q08345). To be noted: described in Day et al. (2008).
DDR1, sequence (Q08345 19-913): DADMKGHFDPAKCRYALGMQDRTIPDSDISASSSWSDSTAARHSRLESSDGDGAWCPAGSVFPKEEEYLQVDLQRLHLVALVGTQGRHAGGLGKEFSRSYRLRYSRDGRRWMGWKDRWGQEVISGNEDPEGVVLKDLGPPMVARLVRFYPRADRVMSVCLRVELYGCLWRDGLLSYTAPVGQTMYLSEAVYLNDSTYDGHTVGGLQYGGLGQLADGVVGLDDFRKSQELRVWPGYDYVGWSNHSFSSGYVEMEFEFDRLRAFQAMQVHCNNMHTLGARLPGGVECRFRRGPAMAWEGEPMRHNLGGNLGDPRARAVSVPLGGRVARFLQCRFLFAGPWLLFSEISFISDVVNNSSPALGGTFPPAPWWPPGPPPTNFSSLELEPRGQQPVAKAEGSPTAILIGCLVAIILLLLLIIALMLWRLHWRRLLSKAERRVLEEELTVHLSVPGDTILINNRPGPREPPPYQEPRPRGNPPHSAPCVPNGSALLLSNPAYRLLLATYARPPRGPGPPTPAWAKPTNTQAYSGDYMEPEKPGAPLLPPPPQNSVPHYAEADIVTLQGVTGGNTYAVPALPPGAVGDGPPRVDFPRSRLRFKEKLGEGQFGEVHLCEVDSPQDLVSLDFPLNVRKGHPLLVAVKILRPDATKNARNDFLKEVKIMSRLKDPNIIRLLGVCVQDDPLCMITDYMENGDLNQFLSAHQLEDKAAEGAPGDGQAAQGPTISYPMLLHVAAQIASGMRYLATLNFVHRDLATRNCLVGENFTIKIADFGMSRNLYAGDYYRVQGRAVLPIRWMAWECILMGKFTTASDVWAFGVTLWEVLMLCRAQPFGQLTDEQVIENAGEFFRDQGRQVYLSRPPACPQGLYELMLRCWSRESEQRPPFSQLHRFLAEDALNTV

Turning to `Cc1nc(Nc2ncc(C(=O)Nc3c(C)cccc3Cl)s2)cc(N2CCN(CCO)CC2)n1` [dasatinib, N-(2-chloro-6-methylphenyl)-2-[[6-[4-(2-hydroxyethyl)-1-piperazinyl]-2-methyl-4-pyrimidinyl]amino]-5-thiazole carboxamide], the “collagen-induced DDR1 activation” value is on record as “inhibitors of collagen-induced DDR1 activation”.
In the case of `Cc1cn(-c2cc(NC(=O)c3ccc(C)c(Nc4nccc(-c5cccnc5)n4)c3)cc(C(F)(F)F)c2)cn1` [nilotinib, 4-methyl-N-[3-(4-methyl-1H-imidazol-1-yl)-5-(trifluoromethyl)phenyl]-3-[(4-pyridin-3-ylpyrimidin-2-yl)amino]benzamide], the “collagen-induced DDR1 activation” value is “inhibitors of collagen-induced DDR1 activation”.
